According to the NIST ThermoML archive (doi:10.1016/j.fluid.2008.04.002):
± gives the expanded uncertainty stated by the source.

Settings: Liquid, Closed cell (Static) method

Structure (SMILES)	vapor or sublimation pressure (263.43 K) [kPa]	vapor or sublimation pressure (273.32 K) [kPa]	vapor or sublimation pressure (283.22 K) [kPa]	vapor or sublimation pressure (288.3 K) [kPa]	vapor or sublimation pressure (293.29 K) [kPa]	vapor or sublimation pressure (313.31 K) [kPa]	vapor or sublimation pressure (333.32 K) [kPa]	vapor or sublimation pressure (353.2 K) [kPa]	vapor or sublimation pressure (253.65 K) [kPa]	vapor or sublimation pressure (258.46 K) [kPa]	vapor or sublimation pressure (263.45 K) [kPa]	vapor or sublimation pressure (268.33 K) [kPa]	vapor or sublimation pressure (273.29 K) [kPa]	vapor or sublimation pressure (278.19 K) [kPa]	vapor or sublimation pressure (283.25 K) [kPa]	vapor or sublimation pressure (288.2 K) [kPa]	vapor or sublimation pressure (290.22 K) [kPa]	vapor or sublimation pressure (291.22 K) [kPa]	vapor or sublimation pressure (292.22 K) [kPa]
FCC(F)(F)F [1,1,1,2-tetrafluoroethane]	195.7 ± 1	287.1 ± 1.2	407.2 ± 1.5	483.6 ± 1.7	566.3 ± 1.9	1014.7 ± 3.3	1680.4 ± 5.4	2636 ± 8.3	–	–	–	–	–	–	–	–	–	–	–
FC(F)(F)C(F)(F)F [hexafluoroethane]	1415.3 ± 4.6	1862 ± 6	2392 ± 7.6	2697.6 ± 8.6	–	–	–	–	1062.9 ± 2	1226.4 ± 2.2	1415.3 ± 2.5	1621.1 ± 2.8	1850 ± 3.2	2100.6 ± 3.6	2385.8 ± 4.1	2697.6 ± 4.6	2832.9 ± 4.8	2903.4 ± 5	2976.2 ± 5.1
